PubChem BioAssay AID2060360 (Molecular Pharmacology Branch, DTP, NCI, 2025)

Tested on: 282377-053-R-J1-PDC tumor spheroids, viability
Experiment: Anticancer human tumor 282377-053-R-J1-PDC patient-derived colon adenocarcinoma cell line growth inhibition [TAK]
Details: spheroids with HUVEC and MSC; for IC50: curve of first compound; for viability, T/C: stronger effect = lower value
Description: Combinatorial screen of targeted agents with TAK-243 and ipatasertib in multi-cell type tumor spheroids
A high-throughput screen of multi-cell type tumor spheroids was designed to identify active combinations of targeted small molecules and TAK-243 or ipatasertib. Complex spheroids include a stromal component modeled by human endothelial cells (HUVEC) and fibroblasts modeled by human mesenchymal stem cells (MSCs). The concentration ranges selected for each drug and investigational agent were based upon clinically achievable concentrations if the clinical Cmax of the agent was known.
Compounds. The drugs and investigational agents: TAK-243 (785004), ipatasertib (767898), everolimus (733504), selumetinib (741078), bortezomib (756655), trametinib (758246), ixazomib (758254), vemurafenib (761431), dabrafenib (764134), sapanisertib (764658), alpelisib (765974), and copanlisib (816437), were obtained from the National Cancer Institute (NCI) Developmental Therapeutics Program Chemical Repository. The FDA-approved anticancer drug set is available from the NCI Developmental Therapeutics Program. […] The stock solutions were prepared in dimethyl sulfoxide (DMSO, Sigma-Aldrich, St. Louis, MO, cat. D2650) at 800-fold the tested concentration and stored at -70 degrees C prior to their use. All drugs and investigational agents were tested over a range starting from a high concentration at or near the clinical Cmax and decreasing in half-log increments. If the clinical Cmax for an agent had not been determined, the highest concentration tested was 10 microM.
NCI60 Cell Culture. NCI60 cell lines were obtained from the NCI Developmental Therapeutics Program Tumor Repository. For each lot of cells, the Repository performed Applied Biosystems AmpFLSTR Identifiler testing with PCR amplification to confirm consistency with the published Identifier STR profile for each cell line. Cells were kept in continuous culture for no more than 20 passages. The optimal seeding densities for each of the cell lines at each time point assessed were determined prior to performing the concentration response studies. Briefly, the NCI60 human tumor lines were grown as monolayers in RPMI 1640 medium supplemented with 10% FBS and 2 mmol/L L-glutamine.
An additional 2 lines were from the NCI60 cell line panel including melanomas, MALME-3M and SK-MEL-2. Pooled donor human umbilical vein endothelial cells (HUVEC, Lonza, cat. CC-2519) and human mesenchymal stem cells (hMSC, Lonza, cat. PT-2501) were purchased from Lonza (Walkersville, MD).
PDMR cell lines were grown in complete medium (DC medium): Dulbecco's modified Eagle's medium (DMEM)/F12 supplemented with 5% fetal bovine serum (FBS), 2 mM L-glutamine, 100 U/mL penicillin and 100 µg/ml streptomycin, 0.4 µg/ml hydrocortisone, 10 ng/ml epidermal growth factor (EGF) recombinant human protein, 24 µg/mL adenine, and 0.1 mg/mL primocin. During culture from frozen stock vials, PDMR cells were cultured in the same medium containing 10 µM Y-27632 (see Table 3). The PDCs were cultured in complete DMEM/F12 media without 10 microM Y-27632 dihydrochloride for at least two passages prior to the screen. The pooled donor HUVEC and hMSC were cultured in endothelial cell growth medium 2 (PromoCell, Heidelberg, Germany, cat. C-22011) and mesenchymal stem cell growth medium 2 (PromoCell, cat. C-28009), respectively. For all experiments, HUVEC and hMSC were used at passages </=5.
For the pre-screen, cell seeding densities were determined from a titration spanning the range from 5,000 to 313 cells per well. The mct-spheroids including 60% malignant cells, 25% HUVEC and 15% MSC dispensed as a mixture into U-bottom Ultra-Low Attachment 384-well plates (Corning, NY)
High-throughput Drug Combination Screening.
Prior to their inoculation into 384-well plates, malignant cells, HUVEC, and hMSC were removed from T flasks using TrypLE express (Thermo Fisher Scientific, cat. 12605036) and harvested by centrifugation for 5 min at 233 x g. […]
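Further: spheroids exposed to drugs for seven days before readout.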

CC(=O)Nc1cccc(-n2c(=O)n(C3CC3)c(=O)c3c(Nc4ccc(I)cc4F)n(C)c(=O)c(C)c32)c1 + CC(C)NCC(C(=O)N1CCN(c2ncnc3c2C(C)CC3O)CC1)c1ccc(Cl)cc1
IC50 (second compound 0.3 µM): 2.49 nM
IC50 (second compound 0.949 µM): 1.95 nM
IC50 (second compound 3 µM): 1.44 nM
IC50 (second compound 9.49 µM): 1.54 nM
IC50 (second compound 30 µM): 0.516 nM
viability, T/C (second compound 0.3 µM, first compound 94.9 pM): 96%
viability, T/C (second compound 0.3 µM, first compound 0.0003 µM): 79%
viability, T/C (second compound 0.3 µM, first compound 0.000949 µM): 67.5%
viability, T/C (second compound 0.3 µM, first compound 0.003 µM): 49.2%
viability, T/C (second compound 0.3 µM, first compound 0.00949 µM): 24.9%
viability, T/C (second compound 0.3 µM, first compound 0.03 µM): 12.4%
viability, T/C (second compound 0.949 µM, first compound 94.9 pM): 86.8%
viability, T/C (second compound 0.949 µM, first compound 0.0003 µM): 76.9%
viability, T/C (second compound 0.949 µM, first compound 0.000949 µM): 55.2%
viability, T/C (second compound 0.949 µM, first compound 0.003 µM): 49.3%
viability, T/C (second compound 0.949 µM, first compound 0.00949 µM): 24.8%
viability, T/C (second compound 0.949 µM, first compound 0.03 µM): 11.8%
viability, T/C (second compound 3 µM, first compound 94.9 pM): 78.2%
viability, T/C (second compound 3 µM, first compound 0.0003 µM): 70.6%
viability, T/C (second compound 3 µM, first compound 0.000949 µM): 53.6%
viability, T/C (second compound 3 µM, first compound 0.003 µM): 40.8%
viability, T/C (second compound 3 µM, first compound 0.00949 µM): 26.7%
viability, T/C (second compound 3 µM, first compound 0.03 µM): 13.7%
viability, T/C (second compound 9.49 µM, first compound 94.9 pM): 75.4%
viability, T/C (second compound 9.49 µM, first compound 0.0003 µM): 71.7%
viability, T/C (second compound 9.49 µM, first compound 0.000949 µM): 56.8%
viability, T/C (second compound 9.49 µM, first compound 0.003 µM): 38.4%
viability, T/C (second compound 9.49 µM, first compound 0.00949 µM): 25.9%
viability, T/C (second compound 9.49 µM, first compound 0.03 µM): 12.4%
viability, T/C (second compound 30 µM, first compound 94.9 pM): 64%
viability, T/C (second compound 30 µM, first compound 0.0003 µM): 58.6%
viability, T/C (second compound 30 µM, first compound 0.000949 µM): 41.6%
viability, T/C (second compound 30 µM, first compound 0.003 µM): 27%
viability, T/C (second compound 30 µM, first compound 0.00949 µM): 22.9%
viability, T/C (second compound 30 µM, first compound 0.03 µM): 12.3%

CC(C)CC(NC(=O)C(Cc1ccccc1)NC(=O)c1cnccn1)B(O)O (stereo not given) + CC(C)NCC(C(=O)N1CCN(c2ncnc3c2C(C)CC3O)CC1)c1ccc(Cl)cc1
IC50 (second compound 0.3 µM): > 10 nM
IC50 (second compound 0.949 µM): > 10 nM
IC50 (second compound 3 µM): > 10 nM
IC50 (second compound 9.49 µM): 7.5 nM
IC50 (second compound 30 µM): 7.96 nM
viability, T/C (second compound 0.3 µM, first compound 31.6 pM): 105%
viability, T/C (second compound 0.3 µM, first compound 0.0001 µM): 96%
viability, T/C (second compound 0.3 µM, first compound 0.000316 µM): 97.5%
viability, T/C (second compound 0.3 µM, first compound 0.001 µM): 98.3%
viability, T/C (second compound 0.3 µM, first compound 0.00316 µM): 98.5%
viability, T/C (second compound 0.3 µM, first compound 0.01 µM): 80.8%
viability, T/C (second compound 0.949 µM, first compound 31.6 pM): 93%
viability, T/C (second compound 0.949 µM, first compound 0.0001 µM): 90.7%
viability, T/C (second compound 0.949 µM, first compound 0.000316 µM): 92.5%
viability, T/C (second compound 0.949 µM, first compound 0.001 µM): 101%
viability, T/C (second compound 0.949 µM, first compound 0.00316 µM): 93.1%
viability, T/C (second compound 0.949 µM, first compound 0.01 µM): 56.5%
viability, T/C (second compound 3 µM, first compound 31.6 pM): 90.2%
viability, T/C (second compound 3 µM, first compound 0.0001 µM): 84.2%
viability, T/C (second compound 3 µM, first compound 0.000316 µM): 87.7%
viability, T/C (second compound 3 µM, first compound 0.001 µM): 86.6%
viability, T/C (second compound 3 µM, first compound 0.00316 µM): 78.8%
viability, T/C (second compound 3 µM, first compound 0.01 µM): 51.1%
viability, T/C (second compound 9.49 µM, first compound 31.6 pM): 83.2%
viability, T/C (second compound 9.49 µM, first compound 0.0001 µM): 83.7%
viability, T/C (second compound 9.49 µM, first compound 0.000316 µM): 83.8%
viability, T/C (second compound 9.49 µM, first compound 0.001 µM): 79.9%
viability, T/C (second compound 9.49 µM, first compound 0.00316 µM): 78.6%
viability, T/C (second compound 9.49 µM, first compound 0.01 µM): 40.6%
viability, T/C (second compound 30 µM, first compound 31.6 pM): 69.2%
viability, T/C (second compound 30 µM, first compound 0.0001 µM): 71.3%
viability, T/C (second compound 30 µM, first compound 0.000316 µM): 72.7%
viability, T/C (second compound 30 µM, first compound 0.001 µM): 68.5%
viability, T/C (second compound 30 µM, first compound 0.00316 µM): 65.3%
viability, T/C (second compound 30 µM, first compound 0.01 µM): 46.2%
